The results in this text go back to patent publication US20250319206A1, “CRISPR/CAS GENE EDITING OF NEH4 AND/OR NEH5 DOMAINS IN NRF2” (Christina Care Gene Editing Institute, Inc., priority 2024, published 2025).

In one data set the test system is T98G cells. The data set is described as follows: Chemosensitivity testing, CellTiter-Glo 2.0, T98G cells. Format: cell-based, human. Conditions: increasing concentrations of temozolomide and doxorubicin, 72 hr. An excerpt:
FIG. 5A-D: Glioblastoma cells targeting exon 4 of NRF2 and assessment of chemotherapy response. T98G cells (FIG. 5A) and LN229 cells (FIG. 5B) were transfected with each respective gRNA. Genomic DNA from each cell population was isolated and amplified across exon 4 of the NRF2 gene. Amplicons were sanger sequenced and analyzed for indels at the CRISPR target site. Raw sequence files were aligned using the software program, DECODR, to display the indel pattern (listed as INDEL and frameshift %). (FIG. 5C-D) Chemosensitivity Testing in response to NRF2 targeting. Chemosensitivity was measured via CellTiter-Glo® 2.0 Assay. Untargeted and CRISPR targeted T98G cells were treated with increasing concentrations of (FIG. 5C) temozolomide or (FIG. 5D) doxorubicin for 72 hr. and then evaluated for cell viability. The average relative viability of cells normalized to the untreated Wt. was graphed. The error bars represent % CV.
Two human glioblastoma-derived cell lines were used to assess CRISPR activity and downstream effects of NRF2 knockout. FIG. 5 compares targeting exon 4 by two sgRNAs (sg76 (SEQ ID NO:16) and sg83 (SEQ ID NO:24)) and chemosensitivity assessment after targeting in both glioblastoma T98G and LN229 cell lines. Both cell lines were transfected using CRISPRmax lipofection with each respective gRNA and Cas9 mRNA. […]

Another data set relates to NRF2. The data set is described as follows: NRF2 western blot in Panc-1 cells. Format: cell-based, Human. Conditions: edited Panc-1 populations vs unedited, GAPDH loading control. How it is done:
Panc-1 cell pellets were collected using a standard RIPA lysis buffer containing protease inhibitor cocktail. Total protein concentration of collected cells was then determined using BCA Protein Assay kit (Pierce, Rockford, IL, USA). The samples were boiled at 95° C. for 10 minutes and then underwent SDS-PAGE on a 10% Mini-PROTEAN TGX Stain-free Protein Gel (BioRad, Cat. 4568033) for 90 min at 100 V. The gel was then transferred to a nitrocellulose membrane using Trans-Blot Turbo Transfer Systems (BioRad, Hercules, CA, USA) with Trans-Blot Turbo RTA Mini 0.2 μm Nitrocellulose Transfer Kit (BioRad Cat. 1704158), mixed molecular weight program, 10 minutes. The blot was placed in 5% milk and blocked at room temperature on shaker for 2 hours. Incubation in primary NRF2 antibody was done overnight at 4° C. on shaker (1:1,000, Abcam ab62352). Membrane was then incubated at room temperature on shaker for 1 hour in NRF2 secondary (1:10,000, Abcam ab205718). The SuperSignal West Dura Extended Duration ECL (Pierce) kit was used on the LI-COR Odyssey FC to visualize bands. […]

The next data set relates to A549 cells. The data set is described as follows: Cell viability (MTS) of gRNA-targeted A549 cells. Format: cell-based, Human. The following applies: without any cisplatin exposure (0 uM), vs wildtype untransfected cells. An excerpt: (§1) FIG. 4A-C: Lung adenocarcinoma cells targeting Exon 3, 4, 5 of NRF2 and assessment of chemotherapy response. (FIG. 4A) A549 cells were transfected with each respective gRNA. Genomic DNA from each cell population was isolated and amplified across exon 3, 4 or 5 of the NRF2 gene. Amplicons were sanger sequenced and analyzed for indels at the CRISPR target site. The graph presents the total editing efficiency listed as Indel and frameshifting indel % listed as FS. (FIG. 4B) Raw sequence files from cells targeted with gRNA 76 or gRNA 83 were aligned using the software program, DECODR, to display the indel pattern (listed as INDEL and %). […] Viability was measured via bioreduction of MTS to a formazan product. […] The average relative viability of cells in response to cisplatin is graphed above.
(§2) To assess CRISPR activity across various exons of NRF2, several gRNAs were designed along exon 3, 4 and 5 of the NRF2 gene in the A549 cell line. The A549 cells were transfected with each individually designed gRNA and cells were collected 72 hours after transfection. Genomic DNA was isolated, PCR amplified and Sanger sequenced. Editing activity was quantified using DECODR to deconvolute the indels present in at the cut site of each gRNA. […]

A further data set deals with NRF2 gene. The experiment in a line: NRF2 gene editing by Sanger sequencing/DECODR in A549 cells. Conditions: 72 hours after transfection. Format: cell-based, Human.
Excerpt: as §1, §2

For the substance “sg76: gRNA targeting exon 4 of NRF2; TCACTTGTTCCTGATATTCC CGG (guide TCACTTGTTCCTGATATTCCCGG; listed as DNA, chemistry not given here)”, in the data set with T98G cells, the sensitivity to treatment result is reported as “increased sensitivity to treatment”.

Take “sg83: gRNA targeting exon 4 of NRF2; GTAGCCCCTGTTGATTTAGA CGG (guide GTAGCCCCTGTTGATTTAGACGG; listed as DNA, chemistry not given here)”: the NRF2 protein knock down entry with NRF2 is “significant knockdown of protein”. Also, the sensitivity to treatment entry in the data set with T98G cells was “increased sensitivity to treatment”. The viability entry with A549 cells is “much lower viability”. In the data set on NRF2 gene, the “editing efficiency (comparison among gRNAs)” value is recorded as “highest editing efficiency”.
